Earlier results on four compounds are cited in publication PMC3691235, “Discovery of a Novel Dual Fungal CYP51/Human 5-Lipoxygenase Inhibitor: Implications for Anti-Fungal Therapy” (PLoS ONE, 2013).

Data set [1] addresses T1, Homo sapiens CYP51 (HsCYP51) (Homo sapiens, UniProt Q16850).
T1 construct: made in house; host or cells: E. coli
T1 sequence (Q16850 1-509): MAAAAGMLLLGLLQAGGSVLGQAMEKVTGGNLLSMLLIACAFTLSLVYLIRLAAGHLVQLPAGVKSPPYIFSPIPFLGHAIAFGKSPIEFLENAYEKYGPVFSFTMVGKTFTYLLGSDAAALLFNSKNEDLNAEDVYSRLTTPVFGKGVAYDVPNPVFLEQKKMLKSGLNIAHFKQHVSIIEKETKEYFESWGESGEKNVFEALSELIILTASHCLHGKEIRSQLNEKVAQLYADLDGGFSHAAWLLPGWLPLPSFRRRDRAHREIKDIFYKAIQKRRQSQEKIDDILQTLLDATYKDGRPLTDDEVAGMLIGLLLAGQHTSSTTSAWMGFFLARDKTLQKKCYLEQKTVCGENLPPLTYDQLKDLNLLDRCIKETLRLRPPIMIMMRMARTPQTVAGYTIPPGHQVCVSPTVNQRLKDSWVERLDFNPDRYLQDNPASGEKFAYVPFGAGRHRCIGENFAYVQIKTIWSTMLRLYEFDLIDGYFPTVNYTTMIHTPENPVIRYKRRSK
Set-up: method as in PMID 20149798. The conditions noted are these: ref [40]; read-out: Kd with HsCYP51, previously reported; cited from earlier work.

Data set [2] addresses T2, Human leukocyte 5-lipoxygenase (Homo sapiens, UniProt P09917).
T2 construct: made in house
T2 sequence (P09917 1-674): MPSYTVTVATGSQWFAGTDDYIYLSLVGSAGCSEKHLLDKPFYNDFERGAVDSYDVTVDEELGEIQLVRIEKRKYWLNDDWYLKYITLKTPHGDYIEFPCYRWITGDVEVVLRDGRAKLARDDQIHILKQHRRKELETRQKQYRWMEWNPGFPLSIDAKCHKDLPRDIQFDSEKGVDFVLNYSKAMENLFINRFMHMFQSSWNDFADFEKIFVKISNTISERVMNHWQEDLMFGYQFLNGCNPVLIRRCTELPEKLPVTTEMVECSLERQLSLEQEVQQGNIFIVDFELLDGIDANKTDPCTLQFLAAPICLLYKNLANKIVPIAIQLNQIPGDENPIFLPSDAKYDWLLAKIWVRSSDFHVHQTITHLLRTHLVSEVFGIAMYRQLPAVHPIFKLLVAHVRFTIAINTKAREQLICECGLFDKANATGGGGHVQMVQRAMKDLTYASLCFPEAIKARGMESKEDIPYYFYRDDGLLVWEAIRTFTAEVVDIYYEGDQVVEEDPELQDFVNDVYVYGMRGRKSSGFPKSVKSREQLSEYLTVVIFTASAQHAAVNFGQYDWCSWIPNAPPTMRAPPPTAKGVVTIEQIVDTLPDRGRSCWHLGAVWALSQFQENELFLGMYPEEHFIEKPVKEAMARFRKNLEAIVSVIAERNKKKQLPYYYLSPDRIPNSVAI
The settings on record: ref [12], [13]; read-out: 5-LOX IC50; cited from earlier work.

A value given as a limit tells only on which side of the number the result lay.

Broadly, the Kd is the equilibrium constant for the complex coming apart. On to `Clc1ccccc1C(c1ccccc1)(c1ccccc1)n1ccnc1` [clotrimazole], for which, in data set [1], the Kd is < 0.1 µM.

With `Clc1ccc(COC(Cn2ccnc2)c2ccc(Cl)cc2Cl)c(Cl)c1` (stereo not shown) [miconazole], the dissociation constant (Kd) in data set [1] is < 0.1 µM.

Turning to `Clc1ccc(COC(Cn2ccnc2)c2ccc(Cl)cc2Cl)cc1` (stereo not shown) [econazole], the dissociation constant (Kd) in data set [1] was < 0.1 µM.

The term IC50 denotes the point on the concentration scale where inhibition reaches its midpoint. Regarding `CCC(C)n1ncn(-c2ccc(N3CCN(c4ccc(OCC5COC(Cn6cncn6)(c6ccc(Cl)cc6Cl)O5)cc4)CC3)cc2)c1=O` (stereo not shown) [itraconazole], the half-maximal inhibitory concentration (IC50) in data set [2] was > 50 µM.
